Experiments:
H929 cells = assay: Cell viability assay (H929 10 FBS); type: cell-based; details: Homo sapiens, NCI-H929, 24 hours, read-out: H929_10FBS IC50
Procedure, shortened: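 H929 cells, 4000/well, in RPMI 1640 with 10% FBS, sodium pyruvate, HEPES and glucose were exposed to compound 24 h at 37 °C. Viability read as luminescence after 30-60 min at RT with CellTiter-Glo or ATPlite 1 Step.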

MCL-1 = MCL-1 (Homo sapiens (Human), UniProt Q07820); assay: Cell free Mcl-1:Bim affinity assay (fluorescence polarization competition); type: binding; details: 15 nM MCL-1, 5 nM FITC-Bim, 1 hour at room temperature; class symbols; read-out: BIM_Ki
Chain of MCL-1 (Q07820 whole entry): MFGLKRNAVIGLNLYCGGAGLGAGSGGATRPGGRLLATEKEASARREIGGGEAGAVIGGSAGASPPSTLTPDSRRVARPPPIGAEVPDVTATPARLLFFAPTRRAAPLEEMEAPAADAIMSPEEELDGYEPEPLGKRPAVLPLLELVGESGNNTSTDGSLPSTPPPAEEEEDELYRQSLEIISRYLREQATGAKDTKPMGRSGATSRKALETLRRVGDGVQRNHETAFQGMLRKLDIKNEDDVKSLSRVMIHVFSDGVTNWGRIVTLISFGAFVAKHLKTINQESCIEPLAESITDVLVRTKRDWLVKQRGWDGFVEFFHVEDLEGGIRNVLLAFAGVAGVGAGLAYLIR
Procedure, shortened: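 Compounds competed with FITC-labelled Bim peptide (5 nM) for MCL-1 (15 nM) in HEPES/NaCl buffer with 1% DMSO, 1 h at room temperature. Fluorescence polarization (535 nm emission) gave % inhibition versus DMSO and positive controls; IC50 from 10-point curves, converted to Ki by the Nikolovska-Coleska equation.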

Structure (SMILES)	IC50 (H929 cells) [nM]	Ki (MCL-1) [nM]
CC1(C)OC/C=C/[C@H](OC(=O)NC2CCC2)[C@@H]2CC[C@H]2CN2C[C@@]3(CCCc4cc(Cl)ccc43)COc3ccc(cc32)S(=O)(=O)NC1=O [Example 184, [(3R,6R,7S,8E,22S)-6′-Chloro-12,12-dimethyl-13,15,15-trioxo-spiro[11,20-dioxa-15-thia-1,14-diazatetracyclo[14.7.2.03,6.019,24]pentacosa-8,16,18,24-tetraene-22,1′-tetralin]-7-yl] N-cyclobutylcarbamate]	< 500	< 1
CC1(C)OC/C=C/[C@H](OC(=O)NC2CCOCC2)[C@@H]2CC[C@H]2CN2C[C@@]3(CCCc4cc(Cl)ccc43)COc3ccc(cc32)S(=O)(=O)NC1=O [Example 185, [(3R,6R,7S,8E,22S)-6′-Chloro-12,12-dimethyl-13,15,15-trioxo-spiro[11,20-dioxa-15-thia-1,14-diazatetracyclo[14.7.2.03,6.019,24]pentacosa-8,16,18,24-tetraene-22,1′-tetralin]-7-yl] N-tetrahydropyran-4-ylcarbamate]	< 500	< 1
CC(C)N1CCN(C(=O)O[C@H]2/C=C/COC(C)(C)C(=O)NS(=O)(=O)c3ccc4c(c3)N(C[C@@H]3CC[C@H]32)C[C@@]2(CCCc3cc(Cl)ccc32)CO4)CC1 [Example 186, [(3R,6R,7S,8E,22S)-6′-Chloro-12,12-dimethyl-13,15,15-trioxo-spiro[11,20-dioxa-15-thia-1,14-diazatetracyclo[14.7.2.03,6.019,24]pentacosa-8,16,18,24-tetraene-22,1′-tetralin]-7-yl] 4-isopropylpiperazine-1-carboxylate]	< 500	< 1
CC1(C)OC/C=C/[C@H](OC(=O)N2CCN(C3COC3)CC2)[C@@H]2CC[C@H]2CN2C[C@@]3(CCCc4cc(Cl)ccc43)COc3ccc(cc32)S(=O)(=O)NC1=O [Example 187, [(3R,6R,7S,8E,22S)-6′-Chloro-12,12-dimethyl-13,15,15-trioxo-spiro[11,20-dioxa-15-thia-1,14-diazatetracyclo[14.7.2.03,6.019,24]pentacosa-8,16,18,24-tetraene-22,1′-tetralin]-7-yl] 4-(oxetan-3-yl)piperazine-1-carboxylate]	< 500	< 1
CC1(C)OC/C=C/[C@H](OC(=O)NC2CC2)[C@@H]2CC[C@H]2CN2C[C@@]3(CCCc4cc(Cl)ccc43)COc3ccc(cc32)S(=O)(=O)NC1=O [Example 188, [(3R,6R,7S,8E,22S)-6′-Chloro-12,12-dimethyl-13,15,15-trioxo-spiro[11,20-dioxa-15-thia-1,14-diazatetracyclo[14.7.2.03,6.019,24]pentacosa-8,16,18,24-tetraene-22,1′-tetralin]-7-yl] N-cyclopropylcarbamate]	< 500	< 1
CN1CCN(C(=O)O[C@H]2/C=C/COC(C)(C)C(=O)NS(=O)(=O)c3ccc4c(c3)N(C[C@@H]3CC[C@H]32)C[C@@]2(CCCc3cc(Cl)ccc32)CO4)CC1 [Example 189, [(3R,6R,7S,8E,22S)-6′-Chloro-12,12-dimethyl-13,15,15-trioxo-spiro[11,20-dioxa-15-thia-1,14-diazatetracyclo[14.7.2.03,6.019,24]pentacosa-8,16,18,24-tetraene-22,1′-tetralin]-7-yl] 4-methylpiperazine-1-carboxylate]	< 500	< 1
CC1(C)OC/C=C/[C@H](OC(=O)N2CCC(O)CC2)[C@@H]2CC[C@H]2CN2C[C@@]3(CCCc4cc(Cl)ccc43)COc3ccc(cc32)S(=O)(=O)NC1=O [Example 190, [(3R,6R,7S,8E,22S)-6′-Chloro-12,12-dimethyl-13,15,15-trioxo-spiro[11,20-dioxa-15-thia-1,14-diazatetracyclo[14.7.2.03,6.019,24]pentacosa-8,16,18,24-tetraene-22,1′-tetralin]-7-yl] 4-hydroxypiperidine-1-carboxylate]	< 500	< 1
COCCNC(=O)O[C@H]1/C=C/COC(C)(C)C(=O)NS(=O)(=O)c2ccc3c(c2)N(C[C@@H]2CC[C@H]21)C[C@@]1(CCCc2cc(Cl)ccc21)CO3 [Example 191, [(3R,6R,7S,8E,22S)-6′-Chloro-12,12-dimethyl-13,15,15-trioxo-spiro[11,20-dioxa-15-thia-1,14-diazatetracyclo[14.7.2.03,6.019,24]pentacosa-8,16,18,24-tetraene-22,1′-tetralin]-7-yl] N-(2-methoxyethyl)carbamate]	< 500	< 1
CC1(C)OC/C=C/[C@H](OC(=O)NC2COC2)[C@@H]2CC[C@H]2CN2C[C@@]3(CCCc4cc(Cl)ccc43)COc3ccc(cc32)S(=O)(=O)NC1=O [Example 192, [(3R,6R,7S,8E,22S)-6′-Chloro-12,12-dimethyl-13,15,15-trioxo-spiro[11,20-dioxa-15-thia-1,14-diazatetracyclo[14.7.2.03,6.019,24]pentacosa-8,16,18,24-tetraene-22,1′-tetralin]-7-yl] N-(oxetan-3-yl)carbamate]	< 500	< 1
CC1(C)OC/C=C/[C@H](OC(=O)NCCN2CCCCC2)[C@@H]2CC[C@H]2CN2C[C@@]3(CCCc4cc(Cl)ccc43)COc3ccc(cc32)S(=O)(=O)NC1=O [Example 193, [(3R,6R,7S,8E,22S)-6′-Chloro-12,12-dimethyl-13,15,15-trioxo-spiro[11,20-dioxa-15-thia-1,14-diazatetracyclo[14.7.2.03,6.019,24]pentacosa-8,16,18,24-tetraene-22,1′-tetralin]-7-yl] N-[2-(1-piperidyl)ethyl]carbamate]	< 500	1 to 100
CNCCN(C)C(=O)O[C@H]1/C=C/COC(C)(C)C(=O)NS(=O)(=O)c2ccc3c(c2)N(C[C@@H]2CC[C@H]21)C[C@@]1(CCCc2cc(Cl)ccc21)CO3 [Example 194, [(3R,6R,7S,8E,22S)-6′-Chloro-12,12-dimethyl-13,15,15-trioxo-spiro[11,20-dioxa-15-thia-1,14-diazatetracyclo[14.7.2.03,6.019,24]pentacosa-8,16,18,24-tetraene-22,1′-tetralin]-7-yl] N-methyl-N-[2-(methylamino)ethyl]carbamate]	< 500	< 1

More lines, now with the values ahead:

IC50 (H929 cells) [nM]	Ki (MCL-1) [nM]	Structure (SMILES)
< 500	< 1	CC1(C)OC/C=C/[C@H](OC(=O)NCCc2cccnc2)[C@@H]2CC[C@H]2CN2C[C@@]3(CCCc4cc(Cl)ccc43)COc3ccc(cc32)S(=O)(=O)NC1=O [Example 178, [(3R,6R,7S,8E,22S)-6′-Chloro-12,12-dimethyl-13,15,15-trioxo-spiro[11,20-dioxa-15λ^6-thia-1,14-diazatetracyclo[14.7.2.0^3,6.0^19,24]pentacosa-8,16,18,24-tetraene-22,1′-tetralin]-7-yl] N-[2-(3-pyridyl)ethyl]carbamate]
< 500	< 1	CC1(C)OC/C=C/[C@H](OC(=O)NCC(F)F)[C@@H]2CC[C@H]2CN2C[C@@]3(CCCc4cc(Cl)ccc43)COc3ccc(cc32)S(=O)(=O)NC1=O [Example 179, [(3R,6R,7S,8E,22S)-6′-Chloro-12,12-dimethyl-13,15,15-trioxo-spiro[11,20-dioxa-15-thia-1,14-diazatetracyclo[14.7.2.03,6.019,24]pentacosa-8,16,18,24-tetraene-22,1′-tetralin]-7-yl] N-(2,2-difluoroethyl)carbamate]
< 500	< 1	CC1(C)OC/C=C/[C@H](OC(=O)NCCN2CCOCC2)[C@@H]2CC[C@H]2CN2C[C@@]3(CCCc4cc(Cl)ccc43)COc3ccc(cc32)S(=O)(=O)NC1=O [Example 180, [(3R,6R,7S,8E,22S)-6′-Chloro-12,12-dimethyl-13,15,15-trioxo-spiro[11,20-dioxa-15-thia-1,14-diazatetracyclo[14.7.2.03,6.019,24]pentacosa-8,16,18,24-tetraene-22,1′-tetralin]-7-yl] N-(2-morpholinoethyl)carbamate]
< 500	< 1	CC(C)NC(=O)O[C@H]1/C=C/COC(C)(C)C(=O)NS(=O)(=O)c2ccc3c(c2)N(C[C@@H]2CC[C@H]21)C[C@@]1(CCCc2cc(Cl)ccc21)CO3 [Example 181, [(3R,6R,7S,8E,22S)-6′-Chloro-12,12-dimethyl-13,15,15-trioxo-spiro[11,20-dioxa-15-thia-1,14-diazatetracyclo[14.7.2.03,6.019,24]pentacosa-8,16,18,24-tetraene-22,1′-tetralin]-7-yl] N-isopropylcarbamate]
< 500	< 1	CC(C)CNC(=O)O[C@H]1/C=C/COC(C)(C)C(=O)NS(=O)(=O)c2ccc3c(c2)N(C[C@@H]2CC[C@H]21)C[C@@]1(CCCc2cc(Cl)ccc21)CO3 [Example 182, [(3R,6R,7S,8E,22S)-6′-Chloro-12,12-dimethyl-13,15,15-trioxo-spiro[11,20-dioxa-15-thia-1,14-diazatetracyclo[14.7.2.03,6.019,24]pentacosa-8,16,18,24-tetraene-22,1′-tetralin]-7-yl] N-isobutylcarbamate]
< 500	< 1	CC1(C)OC/C=C/[C@H](OC(=O)NCC2CC2)[C@@H]2CC[C@H]2CN2C[C@@]3(CCCc4cc(Cl)ccc43)COc3ccc(cc32)S(=O)(=O)NC1=O [Example 183, [(3R,6R,7S,8E,22S)-6′-Chloro-12,12-dimethyl-13,15,15-trioxo-spiro[11,20-dioxa-15-thia-1,14-diazatetracyclo[14.7.2.03,6.019,24]pentacosa-8,16,18,24-tetraene-22,1′-tetralin]-7-yl] N-(cyclopropylmethyl)carbamate]

Reference: patent publication US11130769B2 (Prelude Therapeutics Incorporated, priority 2018, dated 2021)
